Read-outs that look alike come from different tables or passages of the source.
Experiments:
[1] = test system: mitochondrial respiratory chain complex I; type: biochemical, rat; conditions: at 100μM
hNSC = experiment: MMP assay in human neural stem cells (hNSC); type: cell-based; conditions: mean±SD of three experiments
[2] = test system: HeLa cells expressing YFP-Parkin; experiment: Parkin translocation assay; type: cell-based, human; conditions: HeLa cells stably expressing YFP-Parkin; treated for 2 h
[3] = test system: Caenorhabditis elegans strain PE255; experiment: In vivo C. elegans ATP status assay
[4] = test system: mitochondrial respiratory chain complex III; type: biochemical, rat; conditions: at 100μM
rat primary hepatocytes = experiment: MMP assay in rat primary hepatocytes
HepG2 cells [5] = conditions: cited from earlier work
[6] = test system: mitochondrial respiratory chain complex V; type: biochemical, rat
HepG2 cells [7] = test system: HepG2 cells
[8] = test system: mitochondrial respiratory chain complex IV; type: biochemical, rat
[9] = test system: p53 (p53-bla HCT-116 cells); experiment: p53 β-lactamase reporter gene assay; type: cell-based, human; conditions: 16 h incubation; mean±SD of three experiments
[10] = test system: isolated rat liver mitochondria; experiment: Oxygen consumption, Clark-type oxygen electrode; type: biochemical; conditions: for I-ADP, % of control (O2 consumption rate): glutamate/malate driven state 3 respiration; for I-ADP, % of control (O2 consumption rate) / I-sub, % of control (O2 consumption rate) / II-ADP, % of control (O2 consumption rate) / II-sub, % of control (O2 consumption rate): isolated rat liver mitochondria; for I-sub, % of control (O2 consumption rate): glutamate/malate driven state 4 respiration; for II-ADP, % of control (O2 consumption rate): succinate-driven state 3 respiration; for II-sub, % of control (O2 consumption rate): succinate-driven state 4 respiration
HepG2 cells [11] = experiment: ROS-Glo hydrogen peroxide (ROS) assay; type: cell-based, human; conditions: 2 h treatment; mean±SD of three experiments
HepG2 cells [12] = experiment: Intracellular ATP content (cell viability) assay; type: cell-based, human; conditions: for IC50: 40 h treatment, mean±SD of three experiments
HepG2 cells [13] = experiment: Oxygen consumption, Seahorse XF24 analyzer; type: cell-based, human; conditions: Seahorse XF24; HepG2 cells; 25 mM glucose; 1, 4, 16, and 64μM
[14] = target: T1, mitochondrial respiratory chain complex II (Rattus norvegicus, UniProt P21913+Q641Z9+Q6PCT8+Q920L2); experiment: Respiratory chain complex II activity; type: biochemical; conditions: at 100μM; mean±SD of three experiments
T1 construct: Submitochondrial particles were prepared by subjecting the intact rat mitochondria, isolated as described above, to three successive freeze–thaw cycles; from tissue; host or cells: rat liver mitochondria (submitochondrial particles)
T1 sequence (Q920L2 35-656): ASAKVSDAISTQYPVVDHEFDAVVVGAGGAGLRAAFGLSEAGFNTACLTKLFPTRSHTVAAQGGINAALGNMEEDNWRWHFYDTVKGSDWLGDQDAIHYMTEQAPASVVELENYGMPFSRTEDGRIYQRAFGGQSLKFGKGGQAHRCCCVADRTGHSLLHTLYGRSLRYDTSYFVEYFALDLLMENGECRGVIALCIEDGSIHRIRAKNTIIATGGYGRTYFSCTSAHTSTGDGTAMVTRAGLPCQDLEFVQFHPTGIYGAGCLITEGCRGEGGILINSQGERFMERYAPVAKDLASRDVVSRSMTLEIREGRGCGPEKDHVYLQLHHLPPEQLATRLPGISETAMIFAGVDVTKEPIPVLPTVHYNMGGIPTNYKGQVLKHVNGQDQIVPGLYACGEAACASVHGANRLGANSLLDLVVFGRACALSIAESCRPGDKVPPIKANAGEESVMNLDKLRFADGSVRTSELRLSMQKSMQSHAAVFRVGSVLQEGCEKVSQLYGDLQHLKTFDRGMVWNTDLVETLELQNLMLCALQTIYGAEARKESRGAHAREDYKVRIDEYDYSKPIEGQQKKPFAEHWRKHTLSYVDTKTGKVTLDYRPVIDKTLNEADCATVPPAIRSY
T1 sequence (P21913 31-282): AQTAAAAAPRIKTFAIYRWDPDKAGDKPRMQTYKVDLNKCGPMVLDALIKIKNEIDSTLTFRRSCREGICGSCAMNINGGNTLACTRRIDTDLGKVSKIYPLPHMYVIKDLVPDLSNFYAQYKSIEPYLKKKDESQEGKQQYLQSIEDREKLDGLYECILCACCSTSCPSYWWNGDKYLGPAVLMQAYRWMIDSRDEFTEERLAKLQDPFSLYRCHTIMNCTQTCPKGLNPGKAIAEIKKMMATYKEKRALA
T1 sequence (Q641Z9 1-169): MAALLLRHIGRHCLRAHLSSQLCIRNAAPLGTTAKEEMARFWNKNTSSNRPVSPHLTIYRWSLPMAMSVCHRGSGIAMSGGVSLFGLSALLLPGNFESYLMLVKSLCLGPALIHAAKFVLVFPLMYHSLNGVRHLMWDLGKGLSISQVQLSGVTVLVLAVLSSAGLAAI
T1 sequence (Q6PCT8 57-159): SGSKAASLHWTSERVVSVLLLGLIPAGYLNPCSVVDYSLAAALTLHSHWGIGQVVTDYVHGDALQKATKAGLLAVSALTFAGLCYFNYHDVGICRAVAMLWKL

[15] = test system: Nrf2/ARE (ARE-bla HepG2 cells); experiment: ARE β-lactamase reporter gene assay; type: cell-based, human
[16] = test system: Caenorhabditis elegans (Bristol N2); experiment: C. elegans larval development and growth assay

## Cl.N=C1C=CC(=C(c2ccc(N)cc2)c2ccc(N)cc2)C=C1 [C.I. Basic red 9 monohydrochloride]
[1]
  Complex I % inhibition: 14.1±2.98 at 100μM %
hNSC; 1 h treatment, fresh re-sourced stocks, read-out: hNSC IC50 (MMP)
  IC50: 2.55 ± 0.58 µM
hNSC; % of positive control
  hNSC (efficacy) (MMP): −70.3±7.17%
[2]
  Parkin recruitment: Inactive
[3]; 0.5 µM
  LUM: mean difference in luminescence (ATP content) relative to plate controls: 0.1703
[3]; 1 µM
  LUM: mean difference in luminescence (ATP content) relative to plate controls: 0.2203
[3]; 5 µM
  LUM: mean difference in luminescence (ATP content) relative to plate controls: 0.7285
[3]; 10 µM
  LUM: mean difference in luminescence (ATP content) relative to plate controls: 0.8296
[3]; 25 µM
  LUM: mean difference in luminescence (ATP content) relative to plate controls: 1.533
[3]; 50 µM
  LUM: mean difference in luminescence (ATP content) relative to plate controls: 2.0258
[3]; 75 µM
  LUM: mean difference in luminescence (ATP content) relative to plate controls: 2.358
[3]; 100 µM
  LUM: mean difference in luminescence (ATP content) relative to plate controls: 2.677
[3]; 24 h exposure
  LEC (lowest effect concentration), ATP assay: ≤ 10 µM
[3]; C. elegans ATP, JT trend test, Bonferoni correction p<0.05
  LEC LUM: lowest effect concentration for luminescence, a measure of nematode ATP content: 5 µM
[4]
  Complex III % inhibition: 21.6±6.41 at 100μM %
Rat primary hepatocytes; % of positive control, mean±SD of three experiments
  Rat hepatocytes (efficacy) (MMP): −90.3±2.77%
Rat primary hepatocytes; rat hepatocytes, mean ± SD of three experiments
  MMP assays efficacy (%) Rat Hepatocytes: -96±23%
Rat primary hepatocytes; read-out: MMP assays IC50 (µM) Rat Hepatocytes, rat hepatocytes, mean ± SD of three experiments
  IC50: 4.11 ± 4.24 µM
Rat primary hepatocytes; read-out: Rat hepatocytes IC50 (MMP), 1 h treatment, fresh re-sourced stocks, mean±SD of three experiments
  IC50: 6.3 ± 0.43 µM
HepG2 cells [5]
  MMP assays efficacy (%) qHTS-HepG2: -95±11%
HepG2 cells [5]; read-out: MMP assays IC50 (µM) qHTS-HepG2
  IC50: 0.08 ± 0.02 µM
[6]
  Complex V % inhibition (activity call): Inactive
HepG2 cells [7]; 5 mM glucose, % of positive control, mean±SD of three experiments
  HepG2 (efficacy) Glucose (MMP): −97.1±6.48%
HepG2 cells [7]; 10 mM galactose, % of positive control, mean±SD of three experiments
  HepG2 (efficacy) Galactose (MMP): −89.4±4.30%
HepG2 cells [7]; HepG2 cells, single number from one experiment
  MMP assays efficacy (%) HepG2: -94%
HepG2 cells [7]; read-out: HepG2 IC50 Galactose (MMP), 10 mM galactose, no glucose, 1 h treatment, mean±SD of three experiments
  IC50: 2.53 ± 0.46 µM
HepG2 cells [7]; read-out: HepG2 IC50 Glucose (MMP), 5 mM glucose, 1 h treatment, fresh re-sourced stocks, mean±SD of three experiments
  IC50: 1.66 ± 0.28 µM
HepG2 cells [7]; read-out: MMP assays IC50 (µM) HepG2, HepG2 cells, single number from one experiment
  IC50: 0.56 µM
[8]
  Complex IV % inhibition (activity call): Inactive
[9]
  p53 (HCT-116) EC50: Inactive
[10]; 0.8 µM
  I-ADP, % of control (O2 consumption rate): 94 (41.0) % of control
  I-sub, % of control (O2 consumption rate): 100 (13.1) % of control
  II-ADP, % of control (O2 consumption rate): 97 (65.8) % of control
  II-sub, % of control (O2 consumption rate): 96 (20.1) % of control
[10]; 4 µM
  I-ADP, % of control (O2 consumption rate): 82 (35.8) % of control
  I-sub, % of control (O2 consumption rate): 92 (12.1) % of control
  II-ADP, % of control (O2 consumption rate): 93 (63.1) % of control
  II-sub, % of control (O2 consumption rate): 101 (21.1) % of control
[10]; 20 µM
  I-ADP, % of control (O2 consumption rate): 64 (27.9) % of control
  I-sub, % of control (O2 consumption rate): 106 (13.9) % of control
  II-ADP, % of control (O2 consumption rate): 66 (44.4) % of control
  II-sub, % of control (O2 consumption rate): 110 (22.9) % of control
[10]; 100 µM
  I-ADP, % of control (O2 consumption rate): 17 (9.1) % of control
  I-sub, % of control (O2 consumption rate): 94 (12.7) % of control
  II-ADP, % of control (O2 consumption rate): 31 (21.0) % of control
  II-sub, % of control (O2 consumption rate): 96 (20.8) % of control
[10]; Clark-type oxygen electrode, concentrations up to 100μM
  effect on mitochondrial respiration (in words): moderate inhibitory effect on state 3 respiration driven by both glutamate/malate and succinate, but not on state 4 respiration
[10]; mitochondrial respiration in isolated rat liver mitochondria, Clark type oxygen electrode, over tested concentrations
  Potential Mechanism: Inhibitor
HepG2 cells [11]
  ROS (HepG2) EC50: Inactive
HepG2 cells [12]; 5 mM glucose, read-out: ATP (HepG2, glucose) IC50
  IC50: 9.72 ± 5.01 µM
HepG2 cells [12]; 5 mM glucose, % of positive control
  ATP (HepG2, glucose) (efficacy): −101±8.17%
HepG2 cells [12]; 10 mM galactose, read-out: ATP (HepG2, galactose) IC50
  IC50: 6.25 ± 2.01 µM
HepG2 cells [12]; 10 mM galactose, % of positive control
  ATP (HepG2, galactose) (efficacy): −98.4±12.9%
HepG2 cells [13]
  Activity in oxygen consumption: Inhibitor
[14]
  Complex II % inhibition: 12.2±3.48 at 100μM %
[15]; 16 h incubation, mean±SD of three experiments, read-out: ARE (HepG2) EC50
  EC50: 11.7 ± 7.37 µM
[15]; % of positive control
  ARE (HepG2) (efficacy): 107±42.3%
[16]; 0.5 µM
  EXT: mean difference in nematode size relative to plate controls: 0.03177
[16]; 1 µM
  EXT: mean difference in nematode size relative to plate controls: -0.03542
[16]; 5 µM
  EXT: mean difference in nematode size relative to plate controls: 0.06311
[16]; 10 µM
  EXT: mean difference in nematode size relative to plate controls: 0.04374
[16]; 25 µM
  EXT: mean difference in nematode size relative to plate controls: 0.1555
[16]; 50 µM
  EXT: mean difference in nematode size relative to plate controls: 0.3061
[16]; 75 µM
  EXT: mean difference in nematode size relative to plate controls: 1.032
[16]; 100 µM
  EXT: mean difference in nematode size relative to plate controls: 1.117
[16]; C. elegans larval growth, JT trend test, Bonferoni correction p<0.05
  LEC EXT: lowest effect concentration for extinction, a measure of nematode size: 50 µM

Source: paper PMC6112376, “Comprehensive Analyses and Prioritization of Tox21 10K Chemicals Affecting Mitochondrial Function by in-Depth Mechanistic Studies” (Environmental Health Perspectives, 2018)
